Reference: article PMC10865806, “Structural insights into the molecular mechanism of high-level ceftazidime–avibactam resistance conferred by CMY-185” (mBio, 2024)

Key:
CMY-185 = molecular target: T1, CMY-185 (Klebsiella pneumoniae, UniProt Q48434, A134E/N366Y/Q140K/V231S); test: Competitive inhibition of cephalothin hydrolysis and avibactam inhibition kinetics; assay type: biochemical, Escherichia coli; settings: CMY-185; reporter substrate cephalothin 100 µM, Dixon plot; read-out: Ki app
T1 construct: all CMY-2 variant genes encoding the mature enzyme without a signal peptide were cloned into the protein expression plasmid vector pET-30b; made in house; host or cells: E. coli BL21 (DE3), pET-30b
Description: (§1) We tested the enzymes, CMY-2, two single mutants V211S (CMY-42) and N346Y, three double mutants A114E_N346Y, Q120K_N346Y, and V211S_N346Y, and the quadruplet mutant CMY-185 to elucidate the impact on the kinetic properties resulting from the four amino acid substitutions present in CMY-185 compared with CMY-2 ([8]). The steady-state kinetic parameters kcat and Km (or Ki app) for nitrocefin, cephalothin, ceftazidime, and cefiderocol and the inhibition parameters Ki app, k2/K, k−2, and koff for avibactam are summarized in Table 1. During the hydrolysis of nitrocefin, we observed the reduction of the initial velocity at concentrations above 50 µM particularly for the CMY-2 variants harboring the N346Y substitution. As this could have represented substrate inhibition, we then determined the kinetics parameters for nitrocefin using the Haldane equation ([16]). […] In addition, during the hydrolysis of cefiderocol by CMY-185, the initial velocities at a concentration range of 3.7–59.4 µM were similar.
(§2) The steady-state kinetics were carried out on a UV-Visible spectrometer (UV-1280, Shimadzu, Japan) in PBS pH 7.2 at 25°C with a constant amount of enzyme and varying concentrations of the substrates. We tested nitrocefin, cephalothin, ceftazidime, and cefiderocol as the substrates and avibactam as the inhibitor. The steady-state kinetics parameters Km and kcat were determined with the Michaelis-Menten equation. For poorly hydrolyzed substrates, the Km value was assumed to be the competitive inhibition constant (Ki app) value according to previous studies ([17], [19]). Inhibition parameter values of Ki app, k2/K, k−2, and koff for avibactam were determined using a method as described previously ([33]). Cephalothin was used as the reporter substrate for competitive inhibition experiments, and its concentration was fixed at 100 µM. The enzyme concentration was 1–10 nM. Inverse steady-state initial velocities were plotted against the concentration of the competitive inhibitor agents, such as ceftazidime, cefiderocol, and avibactam. The data were analyzed by linear regression analysis of the Dixon plot, and Ki app (observed) was determined by dividing the y-intercept value by the slope of the line. It was then corrected to account for the affinity of cephalothin for each enzyme using the Equation (1):
(§3) (1) Ki app=Ki app (observed)/{1+[S]/Km (cephalothin)}
(§4) where [S] represents the concentration of the reporter substrate cephalothin, and Km (cephalothin) is the Km value of cephalothin for each enzyme.
(§5) The koff value was determined using a jump dilution assay. The enzyme and avibactam were mixed and preincubated at 25°C for 5 min. The concentration of avibactam depended on the enzyme and concentrations 10-fold higher from each Ki app (observed) value were adopted, which were determined based on the corrected competitive inhibition constants Ki app. Preincubated enzyme-avibactam mixture was then diluted 2,000-fold in the 100 µM cephalothin solution, and the hydrolysis of cephalothin was measured. Three independent measurements were performed for each enzyme and substrate or inhibitor combination. Curve fittings using linear or non-linear regression were performed with R 4.1.3 (R Core Team, 2022).

CMY-2 = molecular target: T2, CMY-2 (Klebsiella pneumoniae, UniProt Q48434); test: as above; assay type: biochemical, Escherichia coli
T2 construct: all CMY-2 variant genes encoding the mature enzyme without a signal peptide were cloned into the protein expression plasmid vector pET-30b; made in house; host or cells: E. coli BL21 (DE3), pET-30b
Description: as §1, §2, §3, §4, §5

[1] = molecular target: T3, CMY-2 variant A114E_N346Y (Klebsiella pneumoniae, UniProt Q48434, A134E/N366Y); test: as above; assay type: biochemical, Escherichia coli; settings: reporter substrate cephalothin 100 µM, Dixon plot, read-out: Ki app
T3 construct: all CMY-2 variant genes encoding the mature enzyme without a signal peptide were cloned into the protein expression plasmid vector pET-30b; made in house; host or cells: E. coli BL21 (DE3), pET-30b
Description: as §1, §2, §3, §4, §5

CMY-2 variant N346Y = molecular target: T4, CMY-2 variant N346Y (Klebsiella pneumoniae, UniProt Q48434, N366Y); test: as above; assay type: biochemical, Escherichia coli; settings: N346Y; reporter substrate cephalothin 100 µM, Dixon plot; read-out: Ki app
T4 construct: all CMY-2 variant genes encoding the mature enzyme without a signal peptide were cloned into the protein expression plasmid vector pET-30b; made in house; host or cells: E. coli BL21 (DE3), pET-30b
Description: as §1, §2, §3, §4, §5

[2] = molecular target: T5, CMY-2 variant Q120K_N346Y (Klebsiella pneumoniae, UniProt Q48434, N366Y/Q140K); test: as above; assay type: biochemical, Escherichia coli; settings: Q120K_N346Y; reporter substrate cephalothin 100 µM, Dixon plot; read-out: Ki app
T5 construct: all CMY-2 variant genes encoding the mature enzyme without a signal peptide were cloned into the protein expression plasmid vector pET-30b; made in house; host or cells: E. coli BL21 (DE3), pET-30b
Description: as §1, §2, §3, §4, §5

other β-lactamases = tested on: other β-lactamases; parameters: method as in PMID 30188999, PMID 27736756; settings: cited from earlier work

SMILES: CC(C)(O/N=C(\C(=O)N[C@@H]1C(=O)N2C(C(=O)[O-])=C(C[N+]3(CCNC(=O)c4ccc(O)c(O)c4Cl)CCCC3)CS[C@H]12)c1csc(N)n1)C(=O)O [Cefiderocol, cefiderocol]
- Ki (CMY-185): 200 nM
- fold higher Ki app (CMY-2; cefiderocol compared with ceftazidime): 10 fold
- Ki (CMY-2; reporter substrate cephalothin 100 µM, Dixon plot, read-out: Ki app): 8000 ± 1300 nM
- Ki [1]: 400 nM
- Ki (CMY-2 variant N346Y): 700 nM
- Ki [2]: 400 nM
- Km (other β-lactamases): > 190 µM
